{"source": "patent US20140243411A1", "about": "(priority 2011, published 2014)", "tested_on": "rats contaminated with ^241Am", "experiment": "Radionuclide decorporation efficacy study in rats contaminated with 241Am (Example 10): excretion, tissue content, liver and skeleton burden", "assay_type": "in vivo, SD rats", "protocol": "All animal studies were conducted according to a protocol approved by the University of North Carolina at Chapel Hill Institutional Animal Care and Use Committee (IACUC). Ten-week-old adult female SD rats weighing from 200 to 300 g were used in these studies (Charles River Labs, Raleigh, N.C.). Food and water were given ad libitum. The animal room was kept at a controlled temperature (23° C.) and light cycle (light exposure from 8 AM to 8 PM). For the duration of the study, the rats were housed in metabolic cages individually with daily urine and feces collection until euthanasia on Day 7.\nTo evaluate the efficacy of transdermal delivery of the C2E5 nonaqueous gel, a radionuclide decorporation efficacy study was conducted in rats contaminated with ^241Am. Adult female SD rats were anesthetized with 2-3% isoflurane. Dorsal skin between the cervical vertebrae and anterior thoracic vertebrae was clipped with caution before all animals were contaminated with [^241Am]-Americium nitrate solution (250 nCi, 0.1 mL) via an i.m. injection in anterior thigh muscle. The C2E5 nonaqueous gel was applied at dose of 1000 mg/kg using a cotton swap to a 6 cm^2 (2 cm×3 cm) area of the clipped dorsal region immediately after contamination. A jacket with plastic dorsal insert (VWR International) was placed on the rat to protect the gel application region. The mass of C2E5 gel applied was recorded for each animal to permit the actual dose determination. The animals were housed in metabolic cages individually after C2E5 treatment and were euthanized 7 days after contamination. Positive and negative controls included animals administered Ca-DTPA intravenously and animals without any treatment. The animals were observed once daily and their body weights recorded at pre-dose and prior to necropsy, Urine and feces were collected daily until euthanasia, when the liver, kidneys, both femurs and the muscle tissue from around the injection site were also collected. Cage washes were collected at the end of each experiment. As ˜35% of the decay of ^241Am is associated with photon emissions of 59.7 keV, ^241Am present in samples was quantified using a gamma counter (2470 Wizard 2, Perkin Elmer). The samples were counted for one minute using a 40-80 keV energy detection window and were background-corrected. Additionally, ^241Am activity was quantified in 2×0.1 mL aliquots of the dosing solution. For all samples, ^241Am content was expressed as a percentage of the initial dose.\nwhere % ID represents the percent of injected dose. Where data for both femurs were available, an estimate of the total skeletal burden was made using the method of Volf with modification in which the counts in the contra-lateral femur were multiplied by 19 and added to the counts in the ipsi-lateral femur. The modification for the literature method was due to higher ^241Am content in ipsi-lateral femur as a result of i.m. injection in anterior thigh muscle.\nStatistically significant differences among groups were determined using one-way ANOVA with Tukey's post hoc comparison. All measurements are expressed as mean±standard deviation (S.D.). The level of significance was set at p<0.05.", "key": {"[1]": {"settings": "rats, seven days following a single dose, Ca-DTPA 14 mg/kg i.v., C2E5 1000 mg/kg transdermal"}, "[2]": {"settings": "seven days after single dose, Ca-DTPA 14 mg/kg i.v., C2E5 1000 mg/kg transdermal gel"}}, "note": "Marks after values point to notes of the source that are not given here.", "data": [{"smiles": "O=C([O-])CN(CCN(CC(=O)[O-])CC(=O)[O-])CCN(CC(=O)[O-])CC(=O)[O-].[Ca+2].[Na+].[Na+].[Na+]", "note": "[Ca-DTPA, reference compound]", "values": [{"measurement": "time of peak ^241Am excretion", "setting": "14 mg/kg i.v.", "result": "≤ 24", "unit": "h"}, {"measurement": "Skeleton Burden (% of ID)", "setting": "contra-lateral femur × 19 + ipsi-lateral femur, rats, seven days following a single dose, Ca-DTPA 14 mg/kg i.v. (n = 3), C2E5 1000 mg/kg transdermal", "result": "11.6 ± 2.2^b % of ID"}, {"measurement": "Ipsi-lateral femur content of 241Am", "setting": "rats, seven days following a single dose, Ca-DTPA 14 mg/kg i.v. (one animal excluded), C2E5 1000 mg/kg transdermal", "result": "0.88 ± 0.18^c % of ID of ^241Am"}, {"measurement": "% of Reduction over control (liver burden)", "setting": "[1]", "result": 38.2, "unit": "%"}, {"measurement": "% of Reduction over control (skeleton burden)", "setting": "[1]", "result": 29.3, "unit": "%"}, {"measurement": "Contra-lateral femur content of 241Am", "setting": "[1]", "result": "0.57 ± 0.09 % of ID of ^241Am"}, {"measurement": "Kidney content of 241Am", "setting": "[1]", "result": "0.55 ± 0.03 % of ID of ^241Am"}, {"measurement": "Liver Burden (% of ID)", "setting": "[1]", "result": "10.2 ± 2.7 % of ID"}, {"measurement": "Liver content of 241Am", "setting": "[1]", "result": "10.2 ± 2.7 % of ID of ^241Am"}, {"measurement": "Muscle-contra content of 241Am", "setting": "[1]", "result": "0.0054 ± 0.0028 % of ID of ^241Am per gram of muscle-contra"}, {"measurement": "Muscle-ipsi content of 241Am", "setting": "[1]", "result": "40.0 ± 8.5 % of ID of ^241Am"}, {"measurement": "Pelt at injection site content of 241Am", "setting": "[1]", "result": "0.43 ± 0.24 % of ID of ^241Am"}, {"measurement": "Total decorporation (% of ID of 241Am)", "setting": "[1]", "result": "24.5 ± 3.5 % of ID of ^241Am"}, {"measurement": "reduction of liver burden of ^241Am versus control group", "setting": "seven days after single dose, Ca-DTPA 14 mg/kg i.v., C2E5 1000 mg/kg transdermal", "result": 38.2, "unit": "%"}, {"measurement": "% of Enhanced decorporation over control", "setting": "[2]", "result": 255.3, "unit": "%"}, {"measurement": "Cumulative excretion of ^241Am In feces", "setting": "[2]", "result": "6.1 ± 1.1 % of ID"}, {"measurement": "Cumulative excretion of ^241Am In urine", "setting": "[2]", "result": "18.3 ±2.5 % of ID"}, {"measurement": "Cumulative excretion of ^241Am Total", "setting": "[2]", "result": "24.5 ± 3.5 % of ID"}]}]}
